US20230080054A1 (ILDONG PHARMACEUTICAL CO., LTD., priority 2021, published 2023)

How the values were obtained:
human ANO6 [1] = molecular target: T1, human ANO6 (Homo sapiens, UniProt Q4KMQ2); test: YFP quenching assay (ANO6 ion channel activity); assay type: cell-based; settings: 10 μM ionomycin; for inhibition at 1 µM: test compound 1 μM, read-out: Inhibition Level 1 μM; for inhibition at 30 µM: test compound 30 μM, read-out: Inhibition Level 30 μM
T1 construct: expressed in transfected cells
T1 sequence (Q4KMQ2 1-931 isoform Q4KMQ2-2): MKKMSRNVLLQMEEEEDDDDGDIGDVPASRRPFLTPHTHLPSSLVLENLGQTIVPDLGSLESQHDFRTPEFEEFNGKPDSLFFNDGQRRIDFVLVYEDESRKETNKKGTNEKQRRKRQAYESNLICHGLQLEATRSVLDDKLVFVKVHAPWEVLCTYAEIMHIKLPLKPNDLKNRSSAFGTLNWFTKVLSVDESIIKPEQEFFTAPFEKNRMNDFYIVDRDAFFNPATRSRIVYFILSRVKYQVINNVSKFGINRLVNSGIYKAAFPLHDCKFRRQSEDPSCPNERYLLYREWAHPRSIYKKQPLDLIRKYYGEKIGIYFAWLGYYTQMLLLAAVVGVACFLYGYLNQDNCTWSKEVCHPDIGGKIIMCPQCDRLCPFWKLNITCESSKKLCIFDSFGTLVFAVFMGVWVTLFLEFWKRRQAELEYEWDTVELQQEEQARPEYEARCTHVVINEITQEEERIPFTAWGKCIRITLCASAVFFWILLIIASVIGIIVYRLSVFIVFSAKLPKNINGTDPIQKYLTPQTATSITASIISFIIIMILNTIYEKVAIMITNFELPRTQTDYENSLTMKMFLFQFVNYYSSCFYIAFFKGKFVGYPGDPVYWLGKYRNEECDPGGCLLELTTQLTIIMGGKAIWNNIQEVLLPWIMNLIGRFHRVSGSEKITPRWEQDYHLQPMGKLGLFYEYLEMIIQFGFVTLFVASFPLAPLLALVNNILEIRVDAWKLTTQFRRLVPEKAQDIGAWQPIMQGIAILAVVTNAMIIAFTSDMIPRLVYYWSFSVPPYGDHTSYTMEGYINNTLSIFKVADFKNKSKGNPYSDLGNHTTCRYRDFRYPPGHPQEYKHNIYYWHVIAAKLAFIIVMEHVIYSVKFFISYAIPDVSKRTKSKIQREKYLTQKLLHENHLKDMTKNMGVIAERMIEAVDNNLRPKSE
Method in brief: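 FRT cells stably expressing human ANO6 and YFP-H148Q/I152L/F46L, preincubated 10 min at 40° C with compounds (1% DMSO) in PBS. Quench read every 0.4 s after injecting 140 mM SCN- with 10 μM ionomycin; % inhibition from the 3.6–7.6 s fluorescence difference, normalised to no-ionomycin (100%) and ionomycin-only (0%) wells, duplicate or triplicate.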

human ANO6 [2] = molecular target: T1, human ANO6; test: LACT C2 assay (phosphatidylserine scramblase function assay); assay type: cell-based; settings: FRT cells expressing human ANO6, 10 μM ionomycin; for inhibition at 0.1 µM: test compound 100 nM, read-out: Inhibition Level 100 nM; for inhibition at 1 µM: test compound 1 μM, read-out: Inhibition Level 1 μM
Method in brief: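 FRT cells stably expressing human ANO6 were pretreated with compound (1% DMSO) for 10 min, then stimulated with 10 μM ionomycin for 10 min. Surface phosphatidylserine was stained with 500 nM Lact-C2-GFP and quantified by imaging. Inhibition was scaled between unstimulated (100%) and ionomycin-only (0%) controls, averaged over triplicates.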

Compound	inhibition at 1 µM (human ANO6 [1]) [%]	inhibition at 30 µM (human ANO6 [1]) [%]	inhibition at 0.1 µM (human ANO6 [2]) [%]	inhibition at 1 µM (human ANO6 [2]) [%]
CC(C)CCNC(=O)c1cccc(Nc2ccc(-c3ccc(F)cc3)nn2)c1 [Compound A13]	≥ 60	≥ 60	< 30	30 to 60
O=C(NC1CCCC1)c1cccc(Nc2ccc(-c3ccc(F)cc3)nn2)c1 [Compound A14]	≥ 60	≥ 60	< 30	< 30
O=C(Nc1cccc(F)c1)c1cccc(Nc2ccc(-c3ccc(F)cc3)nn2)c1 [Compound A15]	≥ 60	≥ 60	< 30	30 to 60
O=C(NCc1ccccc1)c1cccc(Nc2ccc(-c3ccc(F)cc3)nn2)c1 [Compound A16]	30 to 60	≥ 60	< 30	< 30
Cc1ccc(CNC(=O)c2cccc(Nc3ccc(-c4ccc(F)cc4)nn3)c2)cc1 [Compound A22]	≥ 60	≥ 60	< 30	< 30
O=C(NCc1ccc(F)cc1)c1cccc(Nc2ccc(-c3ccccc3)nn2)c1 [Compound A24]	≥ 60	≥ 60		30 to 60
O=C(NCc1ccc(Br)cc1)c1cccc(Nc2ccc(-c3ccc(F)cc3)nn2)c1 [Compound A26]	30 to 60	≥ 60	< 30	< 30
CSc1ccc(CNC(=O)c2cccc(Nc3ccc(-c4ccc(F)cc4)nn3)c2)cc1 [Compound A27]	30 to 60	≥ 60	< 30	< 30
Cc1cccc(-c2ccc(Nc3cccc(C(=O)NCC(C)C)c3)nn2)c1 [Compound A32]	≥ 60	≥ 60	< 30	< 30
O=C(NCc1ccccc1)c1cccc(Nc2ccc(-c3cccc(F)c3)nn2)c1 [Compound A34]	≥ 60	≥ 60	< 30	< 30
Cc1ccccc1CNC(=O)c1cccc(Nc2ccc(-c3ccc(F)cc3)nn2)c1 [Compound A35]	≥ 60	≥ 60	< 30	< 30
CC(C)c1ccc(CNC(=O)c2cccc(Nc3ccc(-c4ccc(F)cc4)nn3)c2)cc1 [Compound A36]	≥ 60	≥ 60	< 30	< 30
CCCCCCNC(=O)c1cccc(Nc2ccc(-c3ccccc3)nn2)c1 [Compound A37]	≥ 60	≥ 60	30 to 60	≥ 60
CCCCCCCNC(=O)c1cccc(Nc2ccc(-c3ccccc3)nn2)c1 [Compound A38]	≥ 60	≥ 60	≥ 60	≥ 60
O=C(NC1CCCCCC1)c1cccc(Nc2ccc(-c3ccccc3)nn2)c1 [Compound A39]	30 to 60	≥ 60	≥ 60	≥ 60
O=C(NCCC1=CCCCC1)c1cccc(Nc2ccc(-c3ccccc3)nn2)c1 [Compound A40]	≥ 60	≥ 60	< 30	≥ 60
CCN(CCNC(=O)c1cccc(Nc2ccc(-c3ccccc3)nn2)c1)Cc1ccccc1 [Compound A41]	30 to 60	≥ 60	< 30	30 to 60
O=C(NCc1ccc(Br)cc1)c1cccc(Nc2ccc(-c3ccccc3)nn2)c1 [Compound A43]	≥ 60	≥ 60	< 30	30 to 60
CSc1ccc(CNC(=O)c2cccc(Nc3ccc(-c4ccccc4)nn3)c2)cc1 [Compound A44]	30 to 60	≥ 60	< 30	30 to 60

Compound	inhibition at 1 µM (human ANO6 [1]) [%]	inhibition at 30 µM (human ANO6 [1]) [%]	inhibition at 0.1 µM (human ANO6 [2]) [%]	inhibition at 1 µM (human ANO6 [2]) [%]
O=C(NCCc1ccc(Cl)cc1)c1cccc(Nc2ccc(-c3ccccc3)nn2)c1 [Compound A45]	≥ 60	≥ 60	30 to 60	≥ 60
O=C(NCc1ccccc1Cl)c1cccc(Nc2ccc(-c3ccccc3)nn2)c1 [Compound A46]	30 to 60	≥ 60	< 30	≥ 60
CCCOc1ccc(CNC(=O)c2cccc(Nc3ccc(-c4ccccc4)nn3)c2)cc1 [Compound A47]	≥ 60	≥ 60	30 to 60	
Cc1ccccc1CNC(=O)c1cccc(Nc2ccc(-c3ccccc3)nn2)c1 [Compound A48]	≥ 60	≥ 60	< 30	30 to 60
O=C(NCc1ccc(Cl)cc1)c1cccc(Nc2ccc(-c3ccccc3)nn2)c1 [Compound A49]	30 to 60	≥ 60	< 30	30 to 60
Cc1cccc(CNC(=O)c2cccc(Nc3ccc(-c4ccccc4)nn3)c2)c1 [Compound A50]	≥ 60	≥ 60	< 30	30 to 60
O=C(NCCCc1ccccc1)c1cccc(Nc2ccc(-c3ccccc3)nn2)c1 [Compound A51]	≥ 60	≥ 60	30 to 60	30 to 60
Cc1ccc(CNC(=O)c2cccc(Nc3ccc(-c4ccccc4)nn3)c2)cc1 [Compound A52]	≥ 60	≥ 60	< 30	< 30
CC(C)c1ccc(CNC(=O)c2cccc(Nc3ccc(-c4ccccc4)nn3)c2)cc1 [Compound A53]	≥ 60	≥ 60	< 30	< 30
CCOc1ccc(CNC(=O)c2cccc(Nc3ccc(-c4ccccc4)nn3)c2)cc1OCC [Compound A54]	30 to 60	≥ 60	< 30	< 30
CCN(CC)c1ccc(CNC(=O)c2cccc(Nc3ccc(-c4ccccc4)nn3)c2)cc1 [Compound A55]	≥ 60	≥ 60	< 30	< 30
Cc1ccc(C(C)NC(=O)c2cccc(Nc3ccc(-c4ccccc4)nn3)c2)cc1 (centres unmarked) [Compound A57]	≥ 60	≥ 60	< 30	< 30
CC(CCc1ccccc1)NC(=O)c1cccc(Nc2ccc(-c3ccccc3)nn2)c1 (centres unmarked) [Compound A58]	≥ 60	≥ 60	< 30	< 30
O=C(NC1CCCCC1)c1cccc(Nc2ccc(-c3ccccc3)nn2)c1 [Compound A62]	30 to 60	≥ 60	< 30	30 to 60
O=C(NC1CCCC1)c1cccc(Nc2ccc(-c3ccccc3)nn2)c1 [Compound A63]	≥ 60	≥ 60	< 30	< 30
O=C(NCc1ccc2c(c1)OCO2)c1cccc(Nc2ccc(-c3ccccc3)nn2)c1 [Compound A64]	30 to 60	≥ 60	< 30	< 30
CCCCNC(=O)c1cccc(Nc2ccc(-c3ccccc3)nn2)c1 [Compound A65]	≥ 60	≥ 60	< 30	30 to 60
CC(C)CNC(=O)c1cccc(Nc2ccc(-c3ccccc3)nn2)c1 [Compound A66]	≥ 60	≥ 60	< 30	< 30
